In US20100298141A1, “SUBSTITUTED PYRIDINE N-OXIDE HERBICIDES” (E. I. DU PONT DE NEMOURS AND COMPANY, priority 2007, published 2010):

Key:
[1] = tested on: purple redstem; assay: Test E flooded paddy test; format: in vivo, Ammannia coccinea; settings: Flood, after 21 days, scale 0 to 100
Description: (§1) Three plastic pots (ca. 16-cm diameter) per rate were partially filled with sterilized Tama silt loam soil comprising a 35:50:15 ratio of sand, silt and clay and 2.6% organic matter. Separate plantings for each of the three pots were as follows. Seeds from the U.S. of ducksalad (Heteranthera limosa), smallflower umbrella sedge (Cyperus difformis) and purple […] coccinea), were planted into one 16-cm pot for each rate. […] Seeds from the U.S. of barnyardgrass (Echinochloa crus-galli), late watergrass (Echinochloa oryzicola), early watergrass (Echinochloa oryzoides) and junglerice (Echinochloa colona) were planted into one 16-cm pot for each rate. Plantings were sequential so that crop and weed species were at the 2.0 to 2.5-leaf stage at time of treatment. Potted plants were grown in a greenhouse with day/night temperature settings of 30/27° C., and supplemental balanced lighting was provided to maintain a 16-hour photoperiod. Test pots were maintained in the greenhouse until test completion. At time of treatment, test pots were flooded to 3 cm above the soil surface, treated by application of test compounds directly to the paddy water, and then maintained at that water depth for the duration of the test. Effects of treatments on rice and weeds were visually evaluated by comparison to untreated controls after 21 days. […] A dash (-) response means no test result.

[2] = tested on: bearded sprangletop; assay: Test E flooded paddy test; format: in vivo, Leptochloa fascicularis; settings: Flood, after 21 days, scale 0 to 100
Description: as §1

[3] = tested on: early watergrass; assay: Test E flooded paddy test; format: in vivo, Echinochloa oryzoides; settings: Flood, after 21 days, scale 0 to 100
Description: as §1

[4] = tested on: barnyardgrass; assay: Test E flooded paddy test; format: in vivo, Echinochloa crus-galli; settings: Flood, after 21 days, scale 0 to 100
Description: as §1

[5] = tested on: rice flatsedge; assay: Test E flooded paddy test; format: in vivo, Cyperus iria; settings: Flood, after 21 days, scale 0 to 100
Description: as §1

[6] = tested on: smallflower umbrella sedge; assay: Test E flooded paddy test; format: in vivo, Cyperus difformis; settings: Flood, after 21 days, scale 0 to 100
Description: as §1

[7] = tested on: late watergrass; assay: Test E flooded paddy test; format: in vivo, Echinochloa oryzicola; settings: Flood, after 21 days, scale 0 to 100
Description: as §1

[8] = tested on: Italian ryegrass (LOLMU); assay: Test H preemergence mixtures of compound 2 with crop safeners; format: in vivo, Lolium multiflorum; design: key to LOLMU Obsd. (observed effect): observed % effect, visually evaluated vs controls
Description: (§2) Seeds of test plants consisting of winter wheat (TRZAW, Triticum aestivum), corn (ZEAMD, Zea mays cv. ‘Pioneer 33G26’), giant foxtail (SETFA, Setaria faberi), and Italian ryegrass (LOLMU, Lolium multiflorum) were planted into a blend of loam soil and sand and treated preemergence with a directed soil spray using test chemicals formulated in a non-phytotoxic solvent mixture that included a surfactant. Seeds of small-seeded species were planted about 1 cm deep; larger seeds were planted about 2.5 cm deep. […] Balanced fertilizer was applied through the watering system. Treatments consisted of Compound 2 and the above mentioned safeners alone and in combination using a spray volume of 457 L/ha. Each treatment was replicated four times. Treated plants and controls were maintained in a greenhouse for 14 to 21 days, after which time all species were compared to controls and visually evaluated. […] A dash (-) response means no test result. Colby's Equation was used to determine the herbicidal effects expected from the mixtures. Colby's Equation (Colby, S. […] wherein • Pa+b is the percentage effect of the mixture expected from additive contribution of the individual components, • Pa is the observed percentage effect of the first active ingredient at the same use rate as in the mixture, and • Pb is the observed percentage effect of the second active ingredient at the same use rate as in the mixture.

[9] = tested on: winter wheat (TRZAW); assay: Test J preemergence mixtures of Compound 2 with crop safeners; format: in vivo, Triticum aestivum; design: key to TRZAW Obsd. (observed effect): observed % herbicidal effect
Description: as §2, with “aestivum) and” for “aestivum),”, “33G26’)” for “33G26’), giant foxtail (SETFA, Setaria faberi), and Italian ryegrass (LOLMU, Lolium multiflorum)”, “surfactant.” for “surfactant. Seeds of small-seeded species were planted about 1 cm deep; larger seeds were planted about 2.5 cm deep.”, “times.” for “times. Treated plants and controls were maintained in a greenhouse for 14 to 21 days, after which time all species were compared to controls and visually evaluated.”, “and” for “and •”

SMILES	Plant response rating, Redstem ([1]; 64 g ai/ha)	Plant response rating, Redstem ([1]; 125 g ai/ha)	Plant response rating, Redstem ([1]; 250 g ai/ha)	Plant response rating, Sprangletop, Brdd. ([2]; 64 g ai/ha)	Plant response rating, Sprangletop, Brdd. ([2]; 125 g ai/ha)	Plant response rating, Sprangletop, Brdd. ([2]; 250 g ai/ha)	Plant response rating, Watergrass, Early ([3]; 64 g ai/ha)	Plant response rating, Watergrass, Early ([3]; 125 g ai/ha)	Plant response rating, Watergrass, Early ([3]; 250 g ai/ha)	Plant response rating, Barnyardgrass ([4]; 64 g ai/ha)	Plant response rating, Barnyardgrass ([4]; 125 g ai/ha)	Plant response rating, Barnyardgrass ([4]; 250 g ai/ha)	Plant response rating, Flatsedge, Rice ([5]; 64 g ai/ha)	Plant response rating, Flatsedge, Rice ([5]; 125 g ai/ha)	Plant response rating, Flatsedge, Rice ([5]; 250 g ai/ha)	Plant response rating, Sedge, Umbrella ([6]; 64 g ai/ha)	Plant response rating, Sedge, Umbrella ([6]; 125 g ai/ha)	Plant response rating, Sedge, Umbrella ([6]; 250 g ai/ha)	Plant response rating, Watergrass, Late ([7]; 64 g ai/ha)	Plant response rating, Watergrass, Late ([7]; 125 g ai/ha)	further results
C#CCOc1c(C[S+]([O-])c2cccc[n+]2[O-])c(C(F)(F)F)nn1C (centres unmarked) [Compound 76]	0	40	95	20	70	70	0	50	75	0	60	85	85	95	95	60	90	95	0	40	Plant response rating, Redstem ([1]; 500 g ai/ha): 100; Plant response rating, Redstem ([1]; 1000 g ai/ha): 100; Plant response rating, Sprangletop, Brdd. ([2]; 500 g ai/ha): 65; Plant response rating, Sprangletop, Brdd. ([2]; 1000 g ai/ha): 65; Plant response rating, Watergrass, Early ([3]; 500 g ai/ha): 100; Plant response rating, Watergrass, Early ([3]; 1000 g ai/ha): 100; Plant response rating, Barnyardgrass ([4]; 500 g ai/ha): 95; Plant response rating, Barnyardgrass ([4]; 1000 g ai/ha): 95; Plant response rating, Flatsedge, Rice ([5]; 500 g ai/ha): 100; Plant response rating, Flatsedge, Rice ([5]; 1000 g ai/ha): 100; Plant response rating, Sedge, Umbrella ([6]; 500 g ai/ha): 95; Plant response rating, Sedge, Umbrella ([6]; 1000 g ai/ha): 95; Plant response rating, Watergrass, Late ([7]; 250 g ai/ha): 75; Plant response rating, Watergrass, Late ([7]; 500 g ai/ha): 95; Plant response rating, Watergrass, Late ([7]; 1000 g ai/ha): 95
Cc1cc[n+]([O-])c(S(=O)(=O)Cc2c(C(F)(F)F)nn(C)c2OC(F)F)c1 [Compound 2]																					Plant response rating LOLMU Obsd. ([8]; Cmpd 2 alone 125 g a.i./ha, scale 0 to 100, mean of four replicates): 53; LOLMU Obsd. (observed effect) ([8]; Test H, alone, 125 g a.i./ha): 53; TRZAW Obsd. (observed effect) ([9]; Test J, alone, 125 g a.i./ha): 100; Observed effect (Obsd.), TRZAW ([9]; single active ingredient alone at 125 g a.i./ha): 100%
Cn1nc(C(F)(F)F)c(C[S+]([O-])c2cc(Br)cc[n+]2[O-])c1Cl (racemic) [Compound 35]	85	85	100	90	90	90	0	20	40	0	0	50	70	80	95	85	85	100	0	30	Plant response rating, Redstem ([1]; 16 g ai/ha): 0; Plant response rating, Redstem ([1]; 32 g ai/ha): 45; Plant response rating, Sprangletop, Brdd. ([2]; 16 g ai/ha): 0; Plant response rating, Sprangletop, Brdd. ([2]; 32 g ai/ha): 90; Plant response rating, Watergrass, Early ([3]; 16 g ai/ha): 0; Plant response rating, Watergrass, Early ([3]; 32 g ai/ha): 0; Plant response rating, Barnyardgrass ([4]; 16 g ai/ha): 0; Plant response rating, Barnyardgrass ([4]; 32 g ai/ha): 0; Plant response rating, Flatsedge, Rice ([5]; 16 g ai/ha): 0; Plant response rating, Flatsedge, Rice ([5]; 32 g ai/ha): 30; Plant response rating, Sedge, Umbrella ([6]; 16 g ai/ha): 0; Plant response rating, Sedge, Umbrella ([6]; 32 g ai/ha): 45; Plant response rating, Watergrass, Late ([7]; 16 g ai/ha): 0; Plant response rating, Watergrass, Late ([7]; 32 g ai/ha): 0; Plant response rating, Watergrass, Late ([7]; 250 g ai/ha): 60
